{"source": "paper PMC10247784", "about": "“Physiological activation of human and mouse bitter taste receptors by bile acids” (Communications Biology, 2023)", "key": {"mouse Tas2r123": {"biological_target": "T1, mouse Tas2r123 (Mus musculus, UniProt P59528)", "T1 construct": "expressed in transfected cells; host or cells: HEK293T-Gα16gust44", "T1 sequence (P59528 1-333)": "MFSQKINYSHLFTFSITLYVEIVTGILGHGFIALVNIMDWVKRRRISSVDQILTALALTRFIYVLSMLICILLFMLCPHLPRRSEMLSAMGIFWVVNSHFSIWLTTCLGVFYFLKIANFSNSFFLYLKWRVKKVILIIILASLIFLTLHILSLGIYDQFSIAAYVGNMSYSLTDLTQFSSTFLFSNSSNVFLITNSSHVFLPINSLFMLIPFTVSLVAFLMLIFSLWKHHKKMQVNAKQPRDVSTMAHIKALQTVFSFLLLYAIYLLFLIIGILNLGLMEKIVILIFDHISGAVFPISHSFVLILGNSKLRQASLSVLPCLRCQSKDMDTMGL", "assay": "Calcium imaging assay (FLIPR), HEK293T-Gα16gust44 cells transfected with mouse Tas2r123", "type": "cell-based", "details": "for Activation threshold concentration Tas2r123: p < 0.01 vs empty vector; for Δ F/F: Tas2r123", "procedure": "(§1) This set of bile acids was chosen because of their commercial availability in high purities, their diversity within the class of bile acids and their previous detection and quantitation in human blood. Stock solutions were prepared in DMSO.\n(§2) As basal growth medium for the HEK293T-Gα16gust44 cell line[17],[59] served Dulbecco’s modified eagle medium (DMEM) (Thermo Fisher Scientific, Darmstadt, Germany) supplemented with 10 % fetal bovine serum (Sigma-Aldrich, Steinheim, Germany), 2 mM L-glutamine (Sigma-Aldrich, Steinheim, Germany), 100 units/ml penicillin (Sigma Aldrich, Steinheim, Germany) and 100 µg/ml streptomycin (Sigma Aldrich, Steinheim, Germany). Growth conditions were 37 °C, 5 % CO2 and saturated air-humidity[60].\n(§3) HEK293T-Gα16gust44 cells were seeded on poly-D-lysine (10 µg/ml) coated 96-well plates to reach a confluence of 40-60 % the next day. For transient transfection 150 ng of plasmid DNA containing the receptor of interest and 0.3 µl lipofectamine 2000 (Thermo Fisher Scientific, Darmstadt, Germany) per well were used and transfection took place according to the manual of lipofectamine 2000. […] The empty vector DNA (mock) was transfected as negative control[14],[41].\n(§4) Cells were loaded using the calcium-sensitive fluorescent dye Fluo-4-AM (Abcam, Cambridge, Great Britain) in the presence of 2.5 mM probenecid (Sigma-Aldrich, Steinheim, Germany) the day after transfection[13],[41]. 1 h after loading, cells were washed with C1 buffer using a BioTek Cell Washer, incubated in the dark for half an hour and washed again. For automated agonist application and measurement of fluorescence changes, a FLIPR^TETRA device (Molecular Devices, San José, United States) was used. Viability of cells was tested by application of 100 nM Somatostatin 14 (Bachem, Bubendorf, Switzerland)[42].\n(§5) Measured data were negative control corrected by subtracting the signal of the mock-transfected cells and exported to Microsoft Excel using the FLIPR software ScreenWorks 4.2. In Microsoft Excel software, standardization of maximum fluorescence intensities to the basal fluorescence and normalization to the buffer-only control was done to calculate the relative fluorescence changes (ΔF/F).\n(§6) Initial screening experiments performed in duplicate wells were confirmed by at least one replication and representative traces were selected for display. All dose-response relationships were determined by three independent experiments (biological replicates) performed in duplicates (technical replicates). Threshold concentrations, defined as lowest substance concentrations leading to statistically significant elevated fluorescence changes in receptor-transfected cells compared with empty vector-transfected cells, were determined using SigmaPlot with Student’s t-test to evaluate statistical significance (p < 0.01)."}, "human TAS2R46": {"biological_target": "T2, human TAS2R46 (Homo sapiens, UniProt P59540)", "T2 construct": "expressed in transfected cells; host or cells: HEK293T-Gα16gust44", "T2 sequence (P59540 1-309)": "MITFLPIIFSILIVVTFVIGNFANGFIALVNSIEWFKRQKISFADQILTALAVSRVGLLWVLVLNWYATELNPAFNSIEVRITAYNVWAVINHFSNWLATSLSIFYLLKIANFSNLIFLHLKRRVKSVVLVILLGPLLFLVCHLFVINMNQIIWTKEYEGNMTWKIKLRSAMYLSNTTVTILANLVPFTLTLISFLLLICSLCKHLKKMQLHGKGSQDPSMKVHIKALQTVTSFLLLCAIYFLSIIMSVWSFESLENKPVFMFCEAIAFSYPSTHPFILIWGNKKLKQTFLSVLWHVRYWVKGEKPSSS", "assay": "Calcium imaging assay (FLIPR), HEK293T-Gα16gust44 cells transfected with human TAS2R46", "type": "cell-based", "details": "for Efficacy = maximal amplitude (ΔF/F) / Efficacy (maximal amplitude ΔF/F), individual data points / Δ F/F: TAS2R46; for Efficacy = maximal amplitude (ΔF/F) / Efficacy (maximal amplitude ΔF/F), individual data points: bile acids; for Efficacy = maximal amplitude (ΔF/F): mean; for Efficacy (maximal amplitude ΔF/F), individual data points: single replicates; for Activation threshold concentration TAS2R46: lowest concentration with significantly increased fluorescence vs empty vector (p < 0.01); for Efficacy (signal amplitude) versus control stimulus, TAS2R46: highest applied concentrations, control 10 µM strychnine", "procedure": "as §1, §2, §3, §4, §5, §6"}}, "note": "Values joined by “and” are separate entries in the source; they are usually repeats but may differ in a detail not shown here. Equal entries are not always repeated."}
{"smiles": "C[C@H](CCC(=O)O)[C@H]1CC[C@H]2[C@@H]3[C@H](O)C[C@@H]4C[C@H](O)CC[C@]4(C)[C@H]3C[C@H](O)[C@]12C", "note": "[Cholic Acid, cholic acid]", "values": [{"measurement": "Activation threshold concentration Tas2r123", "setting": "mouse Tas2r123", "value": 10, "unit": "µM"}]}
{"smiles": "C[C@H](CCC(=O)NCC(=O)O)[C@H]1CC[C@H]2[C@@H]3[C@H](O)C[C@@H]4C[C@H](O)CC[C@]4(C)[C@H]3C[C@H](O)[C@]12C", "note": "[Glycocholic Acid, glycocholic acid]", "values": [{"measurement": "Δ F/F", "setting": "mouse Tas2r123; conc. 0,01 mM", "value": -0.001074}, {"measurement": "Δ F/F", "setting": "mouse Tas2r123; conc. 0,1 mM", "value": -0.0006317}, {"measurement": "Δ F/F", "setting": "mouse Tas2r123; conc. 0,03 mM", "value": -0.000632}, {"measurement": "Δ F/F", "setting": "mouse Tas2r123; conc. 0,3 mM", "value": -0.001006}, {"measurement": "Δ F/F", "setting": "mouse Tas2r123; conc. 0,001 mM", "value": "7.054e-5"}, {"measurement": "Δ F/F", "setting": "mouse Tas2r123; conc. 0,003 mM", "value": 0.000982}, {"measurement": "Activation threshold concentration Tas2r123", "setting": "mouse Tas2r123", "value": 30, "unit": "µM"}, {"measurement": "Efficacy = maximal amplitude (ΔF/F)", "setting": "human TAS2R46", "value": 0.0591}, {"measurement": "Efficacy (maximal amplitude ΔF/F), individual data points", "setting": "human TAS2R46; listed as GCA", "value": "0.05097 and 0.06295 and 0.06339"}, {"measurement": "Δ F/F", "setting": "human TAS2R46; conc. 0,01 mM", "value": 0.003139}, {"measurement": "Δ F/F", "setting": "human TAS2R46; conc. 0,1 mM", "value": 0.004292}, {"measurement": "Δ F/F", "setting": "human TAS2R46; conc. 0,03 mM", "value": 0.007529}, {"measurement": "Δ F/F", "setting": "human TAS2R46; conc. 0,3 mM", "value": 0.01216}, {"measurement": "Δ F/F", "setting": "human TAS2R46; conc. 0,001 mM", "value": 0.002929}, {"measurement": "Δ F/F", "setting": "human TAS2R46; conc. 1 mM", "value": 0.0591}, {"measurement": "Δ F/F", "setting": "human TAS2R46; conc. 0,003 mM", "value": 0.003879}, {"measurement": "Activation threshold concentration TAS2R46", "setting": "human TAS2R46", "value": 1000, "unit": "µM"}]}
{"smiles": "C[C@H](CCC(=O)O)[C@H]1CC[C@H]2[C@@H]3[C@@H](O)C[C@@H]4C[C@H](O)CC[C@]4(C)[C@H]3CC[C@]12C", "note": "[Ursodeoxycholic Acid, ursodeoxycholic acid]", "values": [{"measurement": "Δ F/F", "setting": "mouse Tas2r123; conc. 0,01 mM", "value": 0.06526}, {"measurement": "Δ F/F", "setting": "mouse Tas2r123; conc. 0,03 mM", "value": 0.08617}, {"measurement": "Δ F/F", "setting": "mouse Tas2r123; conc. 0,0001 mM", "value": "-5.942e-5"}, {"measurement": "Δ F/F", "setting": "mouse Tas2r123; conc. 0,0003 mM", "value": -0.0007331}, {"measurement": "Δ F/F", "setting": "mouse Tas2r123; conc. 0,001 mM", "value": 0.01545}, {"measurement": "Δ F/F", "setting": "mouse Tas2r123; conc. 0,003 mM", "value": 0.01427}, {"measurement": "Activation threshold concentration Tas2r123", "setting": "mouse Tas2r123", "value": 10, "unit": "µM"}]}
{"smiles": "C[C@H](CCC(=O)NCCS(=O)(=O)O)[C@H]1CC[C@H]2[C@@H]3[C@H](O)C[C@@H]4C[C@H](O)CC[C@]4(C)[C@H]3C[C@H](O)[C@]12C", "note": "[Taurocholic Acid, taurocholic acid]", "values": [{"measurement": "Δ F/F", "setting": "mouse Tas2r123; conc. 0,01 mM", "value": 0.015}, {"measurement": "Δ F/F", "setting": "mouse Tas2r123; conc. 0,1 mM", "value": 0.09205}, {"measurement": "Δ F/F", "setting": "mouse Tas2r123; conc. 0,03 mM", "value": 0.02651}, {"measurement": "Δ F/F", "setting": "mouse Tas2r123; conc. 0,3 mM", "value": 0.1589}, {"measurement": "Δ F/F", "setting": "mouse Tas2r123; conc. 0,001 mM", "value": 0.002404}, {"measurement": "Δ F/F", "setting": "mouse Tas2r123; conc. 0,003 mM", "value": 0.009262}, {"measurement": "Activation threshold concentration Tas2r123", "setting": "mouse Tas2r123", "value": 100, "unit": "µM"}, {"measurement": "Efficacy = maximal amplitude (ΔF/F)", "setting": "human TAS2R46", "value": 0.03422}, {"measurement": "Efficacy (maximal amplitude ΔF/F), individual data points", "setting": "human TAS2R46; listed as TCA", "value": "0.02095 and 0.04014 and 0.04158"}, {"measurement": "Δ F/F", "setting": "human TAS2R46; conc. 0,01 mM", "value": 0.006451}, {"measurement": "Δ F/F", "setting": "human TAS2R46; conc. 0,1 mM", "value": 0.007108}, {"measurement": "Δ F/F", "setting": "human TAS2R46; conc. 0,03 mM", "value": 0.004646}, {"measurement": "Δ F/F", "setting": "human TAS2R46; conc. 0,3 mM", "value": 0.00491}, {"measurement": "Δ F/F", "setting": "human TAS2R46; conc. 0,001 mM", "value": 0.003048}, {"measurement": "Δ F/F", "setting": "human TAS2R46; conc. 1 mM", "value": 0.03422}, {"measurement": "Δ F/F", "setting": "human TAS2R46; conc. 0,003 mM", "value": 0.00216}, {"measurement": "Activation threshold concentration TAS2R46", "setting": "human TAS2R46", "value": 1000, "unit": "µM"}]}
{"smiles": "C[C@H](CCC(=O)O)[C@H]1CC[C@H]2[C@@H]3CC[C@@H]4C[C@H](O)CC[C@]4(C)[C@H]3C[C@H](O)[C@]12C", "note": "[Deoxycholic Acid, deoxycholic acid]", "values": [{"measurement": "Activation threshold concentration Tas2r123", "setting": "mouse Tas2r123", "value": 10, "unit": "µM"}]}
{"smiles": "C[C@H](CCC(=O)NCCS(=O)(=O)O)[C@H]1CC[C@H]2[C@@H]3CC[C@@H]4C[C@H](O)CC[C@]4(C)[C@H]3CC[C@]12C", "note": "[Taurolithocholic Acid, taurolithocholic acid]", "values": [{"measurement": "Efficacy = maximal amplitude (ΔF/F)", "setting": "human TAS2R46", "value": 0.2226}, {"measurement": "Efficacy (maximal amplitude ΔF/F), individual data points", "setting": "human TAS2R46; listed as TLCA", "value": "0.2236 and 0.2143 and 0.2299"}, {"measurement": "Efficacy (signal amplitude) versus control stimulus, TAS2R46", "setting": "human TAS2R46", "value": "about equal to that obtained for strychnine"}, {"measurement": "Efficacy (signal amplitude) versus control stimulus, TAS2R46", "setting": "human TAS2R46; listed as TCLA", "value": "full agonist"}, {"measurement": "Efficacy (signal amplitude) versus control stimulus, TAS2R46", "setting": "human TAS2R46; listed as TLCA", "value": "significantly higher than that of TCA and GCA and comparable to the control stimulus strychnine"}, {"measurement": "Activation threshold concentration TAS2R46", "setting": "human TAS2R46", "value": 0.3, "unit": "µM"}]}
